In brackets after ≈: the same amount, converted by molar mass.
Assays:
[1] = tested on: multidrug resistant Staphylococcus aureus Mu3; test: MIC by CLSI broth micro-dilution, MRSA Mu3; format: cell-based; details: MRSA, CLSI broth micro-dilution, CAMH, read-out: Minimum inhibitory concentration (μM) in MRSA Mu3
Experimental: Aminoxy acids were synthesized by the standard peptide coupling procedures. Minimum inhibitory concentration was determined using CLSI broth micro-dilution method in 96-wells microtitre plates. Minimum inhibitory concentration is defined as the lowest concentration of the compound that inhibits visible growth of the bacteria. All experiments were performed three times. 24 compounds including aminoxy acid monomers and dipeptides have been identified to show toxicity against multidrug resistant Staphylococcus aureus Mu3 and summarized in Table 1. The minimum inhibitory concentration of compound 8 and compound 35 on other gram-positive bacteria was also evaluated and summarized in Table 2. […] As shown in FIGS. 3A-3B there are no observable hemolysis for compound 8 and compound 35 towards human red blood cell.
Bacteria were streaked from the glycerol stock into BHI agar and were incubated overnight. Single colony was picked for the overnight culture in cation-adjusted Mueller Hinton broth (CAMH), LB or BHI. The overnight culture was sub-cultured and regrew to exponential phase for the experiment.
MIC was determined by CLSI broth micro-dilution method in 96-wells microtitre plates. For compounds dissolved in water, 100 μL of 2× testing concentration was added to the first well of each column, followed by two-fold serial dilution for successive wells with 50 μL medium. For chemical compounds dissolved in DMSO, the compounds were two-fold serial diluted by DMSO in a DMSO-compatible 96-well plate. 1 μL of compound in DMSO was transferred into 96-wells microtitre plate containing 50 μL medium to give 2× testing concentration. An overnight culture of bacteria was grown into exponential phase. The bacteria culture was diluted to 1×10^6 CFU/mL and 50 μL of diluted culture were added into each well. The test plates were kept in a 37° C. incubator overnight. Optical density was recorded by DTX 880 multimode detector (Beckman Coulter, California, US). MIC is defined as the lowest concentration of the compound that inhibits visible growth of bacteria. Biological replicates were performed. CAMH was used for bacteria culture and MIC test except S. pneumoniae, L. monocytogenes, E. faecalis and M. smegmatis for which BHI was used as culture medium

[2] = tested on: Staphylococcus aureus strain USA300-LAC; test: Non-lethal bacteremia model, bacteria loads in organs; format: in vivo, Balb/c mice; details: 10 mg/kg/day intraperitoneal, 4 days
Experimental: FIG. 9 are the bar graphs showing compound 8 and compound 35 reduce bacteria loads in different organs of the mice infected by Staphylococcus aureus. Grubb's test was performed to test for outliers. Statistical analysis was performed with two-sided paired t test. (*p<0.05).
Staphylococcus aureus strain USA300-LAC were cultured to the early exponential phase of growth, washed twice with sterile phosphate-buffered saline solution (PBS), and resuspended in PBS at 5×10^6 CFU/200 μL for non-lethal bacteremia model. The female Balb/c mice, 6-8 weeks, were infected intravenously (i.v.) through the tail vein with Staphylococcus aureus and randomized into three groups (N=14 for vehicle; N=12 for compound 8 and compound 35 respectively). One hour after infection, mice received intraperitoneal injections of compound 8 or compound 35 (10 mg/kg/day) or an injection of buffer (PBS with 2.5% DMSO and 2% Tween-80) as the control. The compound and injection buffer treatments were performed twice per day at 12-h intervals. The challenged mice were monitored for 4 days, at which point all the remaining mice were sacrificed. The CFU of S. aureus were determined in heart, liver, kidney and lung by plating in series dilution. Grubb's test was performed to test for outliers. Statistical analysis was performed with two-sided paired t test. (*p<0.05).

| MIC [1] | Structure (SMILES) | bacteria load in heart [2] | bacteria load in liver [2] | bacteria load in lung [2] |
| --- | --- | --- | --- | --- |
| > 12.5 µM | CC(C)C[C@H](ONC(=O)[C@@H](COCc1ccccc1)ONS(=O)(=O)c1ccc(C(F)(F)F)cc1)C(=O)Nc1ccc2c(c1)OC(F)(F)O2 [Compound 54] | – | – | – |
| > 12.5 µM | CC(C)C[C@H](ONC(=O)[C@@H](COCc1ccccc1)ONS(=O)(=O)c1cc(C(F)(F)F)cc(C(F)(F)F)c1)C(=O)Nc1ccc2c(c1)OC(F)(F)O2 [Compound 55] | – | – | – |
| 6.25 µM (≈ 4 µg/mL) | CC(C)C[C@H](NC(=O)[C@@H](COCc1ccccc1)ONC(=O)c1cc(C(F)(F)F)cc(C(F)(F)F)c1)C(=O)Nc1ccccc1 [Compound 56] | – | – | – |
| > 12.5 µM | CC(C)C[C@H](ONC(=O)[C@@H](COCc1ccccc1)NC(=O)c1cc(C(F)(F)F)cc(C(F)(F)F)c1)C(=O)Nc1ccccc1 [Compound 57] | – | – | – |

| Structure (SMILES) | MIC [1] | bacteria load in heart [2] | bacteria load in liver [2] | bacteria load in lung [2] |
| --- | --- | --- | --- | --- |
| CC(C)C[C@H](ONC(=O)[C@@H](COCc1ccccc1)ONC(=O)c1cc(C(F)(F)F)cc(C(F)(F)F)c1)C(=O)NCc1ccccc1 [Compound 30] | > 12.5 µM | can reduce the bacteria load | can reduce the bacteria load | can reduce the bacteria load |

From patent US20240315992A1, “AMINOXY ACID-BASED ANTIBACTERIAL COMPOUNDS AND METHODS THEREOF” (The University of Hong Kong, priority 2023, published 2024)
